Measured values from patent US6200962A, “Thionophosphate derivatives, process for their preparation and pharmaceutical compositions containing them” (priority 1994, dated 2001).

Key:
[1] = literature; cited from earlier work
[2] = oil(mineral)/water and octanol/water partitioning; format: physicochemical; conditions: for logP: octanol/water, read-out: P (octanol/water) (converted); for P (oil/water): oil(mineral)/water
Description: The basic chemical structure of the compounds of the invention includes the group --P--N=S, which resembles the thiourea --N--C=S core, in which the central carbon atom has been replaced by a phosphorus atom, to give --N--P=S, which is the characteristic functional group the novel compounds of the invention. This functional group is based on a primary amido thionophosphate (AMTP) chemical bond. The specific compounds shown in FIG. 1, which are only representative of the numerous possible compounds, differ in their oil(mineral) /water and octanol/water partitioning: […]

[3] = Lipid hydroperoxides in partially oxidized SUV liposomes; conditions: 5 mM
Method: SUV liposomes were prepared from egg lecitin at 10% lipid concentration in a 50 ml HEPES buffer pH=6.9 according to already published procedures [Lichtenberg, D. and Barenholz. Y. (1988) Methods of Biochemical Analysis 33:337-462].
Lipid hydroperoxides were monitored by a modified micromolar sensitive spectroscopic method [Siddiqi, A. M. and Tappel, A. L. (1955) Chemist Analyst 44:52]. 50λ of lipids (liposomes or emulsion) were dissolved in 1 ml ethanol. 50λ of 50% potassium iodide solution were then added and the mixture was incubated for half an hour in the dark. The developed color was read in a spectrophotometer at 400 nm.
SUV Liposomes (12.5 mM) with certain degrees of oxidation were incubated with 5 mM AMTP molecules for period of 24 h. Peroxidation number (PN) was measured with potassium iodide in ethanol. AMTPs were able to decompose lipid hvdroperoxide and to reduce the peroxidation number (PN).

BSA [4] = assay: BSA oxidation by NaOCl, fluorescence (tryptophan); conditions: NaOCl 1 mM
Method: BSA (0.5 mg/ml) in a 1 ml HEPES Buffer pH=7.2(50 mM) was incubated for 15 min with 1 mM sodium hypochlorite. Various concentrations of AMTP (compound B) were added to protect the protein. The sample was diluted in 3 ml of HEPES buffer and fluorescence was measured (lex =280 nm, lem =345 nm) in a JASCO FP-770 spectrotluorometer. Fluorescence decav was due to tryptophan and tyrosine oxidation. Alternatively, BAS (0.5 mg/ml) in HEPES buffer (1 ml) was incubated with 2,2'-azobis-(2-amidinopropane)-HCL (AAPH) (a water soluble peroxy radical initiator) (50 mM) at 37° C. for a period of 4 h. The sample was diluted with 2 ml of the buffer and fluorescence was measured [Hazell, L. and Stocker, R. (1993) Biochem. J. 290:165-172].
(§1) BSA's tryptophan oxidation and BSA's cystine oxidation were the models for protein damage by NaOCl (FIG. 11 and FIG. 12 respectively). BSA fluorescence intensity decreased following oxidative stress of NaOCI (1 mM). […] Out of the three AMTP compounds the most lipophilic (A) was best in preventing the damage and provided 94% protection on the protein.

BSA [5] = assay: BSA's cystine oxidation by NaOCl (DTNB); conditions: NaOCl 1 mM
Method: BSA (0.5 mg/ml) in Imi HEPES buffer pH=7.2(50 mM) was incubated with sodium hypochlorite (1 mM) for 15 min. The protein was dialyzed for 2 h against 2×500 vol of HEPES buffer to remove free sodium hypochlorite. 301 DTNB 0.015 M in water was then added to the protein solution and color was measured at 420 nm. AMTPs were added to the protein sample to protect it against sodium hypochlorite [Hazell and Stocker, ibid.].
as §1

Human skin fibroblasts = assay: Chromium release from fibroblasts, killing by streptolysin S and glucose oxidase; format: cell-based
Method: Human skin fibroblasts were kindly supplied by the Department for Human Genetics at Hadassa Hospital in Jerusalem. The cells were grown in D-MEM medium supplemented with glutamine, penicillin, and streptomycin and 10% fetal calf serum [Ginsburg, I. et al. (1992) Inflammation 16:519-538]. Radiolabeled cell monolayers were prepared by the addition of 10 μCi/ml of [^51 Cr]NaCrO4 (New England Nuclear) to […] of trypsinized cells grown in 75-ml tissue culture bottles. The cells were then dispensed into 24-well tissue culture plates (Nunc, Roskilde, Denmark) and grown to confluency in a CO2 incubator.
Hydrogen peroxide flux was generated by the addition of glucose oxidase (0.5 units/ml) to the tissue culture media. Streptolysin S (SLS) of Croup A Streptococci (17 hemolytic units/ml) was employed as a membrane damaging agent.
Culture monolayers were treated for 1 h with the agents listed above. The cultures were monitored periodically for changes in cell morphology. To assess cytotoxicity, the supernatant fluids were removed and centrifuged at 2000 rpm for 2 min. The solubilized radioactivity was then determined in a Contron gamma counter. The total radioactivity associated with untreated controls was solubilized by the addition of 1 ml of 1% Triton X-100. (AMTPs influence on SLS hemolytic activity and on glucose oxidase activity was also tested. No influences were observed).
Fibroblasts in culture were exposed to a synergistic killing mechanism (streptolysin S in combination with an oxidant glucose oxidase) in a D-MEM culture medium that contained 1 mg/ml of glucose (about 0.5-1 mM of H2 O2 was produced after 1 hour of incubation at 37° C.). This system caused about 60% chromium released within an hour. […] The positive controls were DMTU and catalase.

[6] = Solubility in D-MEM medium; format: physicochemical; conditions: not soluble above this concentration
[7] = Pro-oxidative effect: oxygen consumption with copper; conditions: for oxygen consumption: 10 mM, Cu2+ 10 mM, pH 7.2, 37 °C; for Rate of oxygen consumption: Table 1, 10 mM with Cu2+ 10 mM
Method: Oxygen consumption from solutions that contained AMTPs or other antioxidants such as cystine or ascorbic acid at 10 mM each, and copper sulfate 10 mM, was monitored by Biological Oxygen Monitor, model YSI 53.
AMTP molecules (10 mM) were incubated at pH=7.2 37° C. with Cu^2+ (10 mM). Oxygen consumption from the solution was measured with a Clark electrode (biological oxygen monitor). No oxygen consumption was observed from the solution. […] The oxygen consumption rate is referred to free radical production rate.

[8] = Hydroxyl radical deoxyribose assay
Method: A modification of the assay described by Halliwell et al. [Halliwell, B. et al. (1987) Analyt. Biochem. 165:215-219] was developed. 2-Deoxyribose was purchased form Sigma Chemical Co. All other chemicals for the assay were purchased from BDH Chemicals Ltd. Degradation of deoxy ribose was achieved bv a mixture of Fe^2+, EDTA, ascorbic acid and H2 O2. […] The reaction mixture was incubated for 1 h at 37° C. Scavenging of hydroxyl radical was done by various concentrations of AMTP (compound C), and color was developed by reaction with thiobarbituric acid as described [Halliwell, B. et al., ibid.]
A^-1 =A0^-1 {1+K[S]×(KDR [DR])^-1 } Equation 1
where A is the absorbance in the presence of a scavenger S (AMTPs) at a concentration [S] and A0 is the absorbance in the absence of a scavenger KDR =3.1*10^9 (reaction constant between deoxyribose and OH. radical) [Ebert, M., et al. (1965) Pulse Radiolysis, Academic Press, London] and [DR]=18 mM. […] Considering the fast reaction between H2 O2 and Fe^2+ --NTA and the slow reaction rate between AMTP and hydrogen peroxide as monitored in the ^31 P experiments (FIG. 5), the light decay may be exclusively attributed to hydroxyl radical scavenging.

In the case of `CNC(=S)NC` [DMTU, N,N'-dimethyl thiourea], the toxicity [1] is given as “considered a toxic compound”.

For `NC(=S)Nc1cccc2ccccc12` [α-naphthyl-thiourea], the LD50 [1] is listed as “about 10 mg/kg”.

In the case of `CCCCNP(=S)(OCC)OCC` [Compound A, n-butylamido diethylthioiiophosphate], the logP [2] is reported as 0.788, the “P (oil/water)” value [2] is reported as 4.82 and the “reduction of PN, comparative” value ([3]; after 24 h) is reported as “more effective in reducing PN”. For the same compound, the “protection of BSA fluorescence” value (BSA [4]) was 94%, the “protection of BSA's cystines” value (BSA [5]) was “strong protection” and the inhibition at 2000 µM (Human skin fibroblasts; Homo sapiens, Skin fibroblast, 1 h, 2 mM, read-out: protection against cell killing) was 10%. The solubility [6] was no more than 2000 µM.

For `N[C@@H](CSSC[C@H](N)C(=O)O)C(=O)O` [cystine], the oxygen consumption [7] was “significant oxygen consumption” and the “Rate of oxygen consumption” value [7] was 2.35e-06 M/min.

For `CCOP(=S)(NCCC(=O)O)OCC` [Compound C, 2-carboxyamidodiethyl thionophosphate], the logP [2] was -0.357, the “P (oil/water)” value [2] was 0.39 and the “reaction rate constant with hydroxyl radicals” value ([8]; calculated from equation 1, 18 mM deoxyribose) was 1.5×10^9 M^-1 S^-1. The hydroxyl radical scavenging ([8]; deoxyribose degradation) was “potent hydroxyl radical scavengers”, the “reduction of PN, comparative” value ([3]; first few hours of incubation) was “more efficient in the first few hours” and the “toxic effects on the cell” value (Human skin fibroblasts; concentrations of up to 20 mM, compound alone) was “did not show any toxic effects”. For the same compound, the “protection against cell killing” value (Human skin fibroblasts; concentrations up to 10 mM, 60 min) was 50-60%.

In the case of `O=C1O[C@H]([C@@H](O)CO)C(O)=C1O` [Ascorbic acid], the oxygen consumption [7] is reported as “significant oxygen consumption” and the “Rate of oxygen consumption” value [7] is reported as 2.87e-05 M/min.
